Experimental data from patent US20220193076A1, “METHODS OF TREATING BREAST CANCER WITH TUCATINIB” (Seagen Inc., priority 2019, published 2022).

Legend:
[1] = target: T1, MATE1 (Homo sapiens, UniProt Q96FL8); assay: Inhibition of MATE1 mediated transport of creatinine in transfected MDCK-II cells (Example 3); type: in vitro ADME; design: expressed in transfected cells; host or cells: MDCK-II; conditions: probe substrate creatinine
T1 sequence (Q96FL8 1-570): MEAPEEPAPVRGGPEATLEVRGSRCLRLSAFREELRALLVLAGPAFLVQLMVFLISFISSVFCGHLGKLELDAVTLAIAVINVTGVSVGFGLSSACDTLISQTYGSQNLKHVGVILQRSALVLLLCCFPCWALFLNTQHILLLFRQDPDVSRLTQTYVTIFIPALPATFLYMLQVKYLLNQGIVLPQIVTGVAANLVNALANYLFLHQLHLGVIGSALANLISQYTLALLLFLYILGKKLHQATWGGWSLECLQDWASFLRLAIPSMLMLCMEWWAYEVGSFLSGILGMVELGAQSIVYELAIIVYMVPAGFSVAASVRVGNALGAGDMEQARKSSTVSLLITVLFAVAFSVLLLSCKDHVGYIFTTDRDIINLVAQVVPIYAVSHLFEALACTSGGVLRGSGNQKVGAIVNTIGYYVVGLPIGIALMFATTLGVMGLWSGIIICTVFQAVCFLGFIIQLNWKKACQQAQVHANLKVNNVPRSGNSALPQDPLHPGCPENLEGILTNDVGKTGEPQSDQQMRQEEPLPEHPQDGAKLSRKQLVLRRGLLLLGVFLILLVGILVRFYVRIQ
Experimental: OAT2, OCT2, OCT3, MATE1, and MATE2-K are the renal transporters identified to transport creatinine.
For this study, MDCK-II were maintained in DMEM with low glucose and 10% FBS. Cells were seeded at 60K±10K cells/well on 96-well, transwell membrane plates approximately 24 hours before transfection. Transport assays were carried out approximately 48 hours after transfection. Cells were transfected and treated to express the transporter of interest or treated with a control vector. The transport of creatinine was determined by radiometric detection.
Net transporter mediated uptake of the substrate by each transporter was calculated as follows: Net Transporter Mediated Substrate Uptake (pmol/min/cm^2)=(Cellular accumulation in the presence of the transporter)−(Mean cellular accumulation in the absence of the transporter.
Percent inhibition was calculated as follows: Percent inhibition=100−(100*(transporter mediated uptake)with inhibition/(transporter mediated uptake)without inhibition)
The following equation was used to determine IC50 values of uptake assays: […]

[2] = target: bile salt export pump (BSEP) (Homo sapiens, UniProt O95342); assay: In vitro inhibition of BSEP activity; type: in vitro ADME
Chain of bile salt export pump (BSEP) (O95342 whole entry, species assumed): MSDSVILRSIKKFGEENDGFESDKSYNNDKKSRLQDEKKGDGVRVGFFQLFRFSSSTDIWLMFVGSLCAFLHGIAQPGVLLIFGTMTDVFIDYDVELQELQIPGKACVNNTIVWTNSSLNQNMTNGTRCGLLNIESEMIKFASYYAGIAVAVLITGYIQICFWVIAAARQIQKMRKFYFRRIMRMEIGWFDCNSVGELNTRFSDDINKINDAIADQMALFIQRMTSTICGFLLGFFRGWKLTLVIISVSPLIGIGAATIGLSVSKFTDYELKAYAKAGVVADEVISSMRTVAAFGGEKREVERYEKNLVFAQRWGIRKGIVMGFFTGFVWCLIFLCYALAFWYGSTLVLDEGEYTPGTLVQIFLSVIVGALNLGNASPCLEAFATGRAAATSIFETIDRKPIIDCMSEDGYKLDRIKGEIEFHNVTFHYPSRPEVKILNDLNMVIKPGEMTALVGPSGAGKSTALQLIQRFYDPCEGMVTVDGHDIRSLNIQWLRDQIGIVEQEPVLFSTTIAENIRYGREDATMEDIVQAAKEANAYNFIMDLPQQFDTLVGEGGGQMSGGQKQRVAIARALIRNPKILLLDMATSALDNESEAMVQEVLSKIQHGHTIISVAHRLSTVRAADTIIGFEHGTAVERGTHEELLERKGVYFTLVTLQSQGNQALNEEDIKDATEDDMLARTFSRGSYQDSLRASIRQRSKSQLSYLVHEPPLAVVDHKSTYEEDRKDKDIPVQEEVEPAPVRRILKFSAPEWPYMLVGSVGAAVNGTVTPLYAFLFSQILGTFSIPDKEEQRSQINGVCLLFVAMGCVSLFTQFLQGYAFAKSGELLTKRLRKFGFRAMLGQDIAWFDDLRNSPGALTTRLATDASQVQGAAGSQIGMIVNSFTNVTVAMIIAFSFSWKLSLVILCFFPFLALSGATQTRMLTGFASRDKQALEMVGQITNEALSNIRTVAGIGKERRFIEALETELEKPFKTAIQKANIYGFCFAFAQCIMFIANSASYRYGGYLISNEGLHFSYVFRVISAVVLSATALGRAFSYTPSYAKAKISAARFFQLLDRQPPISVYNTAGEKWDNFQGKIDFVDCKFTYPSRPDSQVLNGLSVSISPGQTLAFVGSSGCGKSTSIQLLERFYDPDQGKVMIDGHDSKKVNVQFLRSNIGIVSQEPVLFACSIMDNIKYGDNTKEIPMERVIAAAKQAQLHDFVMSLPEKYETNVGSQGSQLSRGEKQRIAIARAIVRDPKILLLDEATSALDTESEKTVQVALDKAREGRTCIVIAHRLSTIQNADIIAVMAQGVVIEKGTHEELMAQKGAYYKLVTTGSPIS

[3] = target: T1, MATE1; assay: In vitro inhibition of MATE1 transporter; type: in vitro ADME
[4] = target: T2, CYP2C8 (Homo sapiens, UniProt P10632); assay: Example 2 Part D: effect of tucatinib on PK of substrate probe repaglinide; type: in vivo; design: endogenous in cells; host or cells: healthy human subjects, in vivo; conditions: steady-state tucatinib 300 mg BID, probe repaglinide
T2 sequence (P10632 1-490): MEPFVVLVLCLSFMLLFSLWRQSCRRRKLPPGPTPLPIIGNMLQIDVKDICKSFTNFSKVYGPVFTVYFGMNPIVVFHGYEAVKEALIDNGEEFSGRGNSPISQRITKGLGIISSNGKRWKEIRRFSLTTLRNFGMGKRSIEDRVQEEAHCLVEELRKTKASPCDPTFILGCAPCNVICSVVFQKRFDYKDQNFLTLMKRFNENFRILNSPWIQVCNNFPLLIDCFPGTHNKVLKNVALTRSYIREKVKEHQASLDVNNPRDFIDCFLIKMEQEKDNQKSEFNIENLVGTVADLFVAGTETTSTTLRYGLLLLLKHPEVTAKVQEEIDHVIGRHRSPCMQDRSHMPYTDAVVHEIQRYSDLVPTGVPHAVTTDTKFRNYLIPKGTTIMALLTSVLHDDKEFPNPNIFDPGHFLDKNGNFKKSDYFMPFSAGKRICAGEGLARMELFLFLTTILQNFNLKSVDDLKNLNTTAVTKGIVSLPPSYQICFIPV
Experimental: A Phase 1, open-label, fixed-sequence, 5-part, drug-drug interaction study of tucatinib was conducted to evaluate the effects of CYP3A4 and CYP2C8 inhibition and induction on the pharmacokinetics of tucatinib and to evaluate the effects of tucatinib on the pharmacokinetics of substrates of CYP3A4, CYP2C8, CYP2C9, and P-glycoprotein in healthy male and female subjects.
Part B evaluates the effect of rifampin, a strong inducer of CYP3A4 and CYP2C8, on the PK of tucatinib. […] Part E evaluates the effect of tucatinib on the PK of a substrate probe of the transporter P-gp (digoxin). […] For Parts A, B, and C, tucatinib is given as a single oral dose because evaluating plasma exposures after a single dose of tucatinib is expected to provide an appropriate assessment of the impact of the probe drugs on tucatinib PK. In Parts D and E, tucatinib is given as a multiple-dosing regimen in order to examine its effects on probe drugs at steady state, at which maximal inhibition of CYP2C8, CYP2C9, CYP3A4, and P-gp by tucatinib should be achieved.
Secondary objectives of the study included: (1) assessing the safety and tolerability of tucatinib when administered alone and when co-administered with substrate probes of CYP2C8, CYP2C9, and CYP3A4; and (2) assessing the single-dose PK of tucatinib and assessing the multiple-dose, steady-state PK of tucatinib alone and in the presence of substrate probes of CYP2C8, CYP2C9, and CYP3A4 in healthy subjects.
They were discharged on Day 14 after completion of the in-patient assessments.
On Day 1, each subject received a single oral dose of 0.5 mg of repaglinide. […] From Day 4 to Day 13, each subject received oral doses of 300 mg of tucatinib, twice daily (BID). On Day 11, each subject received a single oral dose of repaglinide. […] Tucatinib was provided as 150-mg tablets (2 tablets for the 300-mg dose), repaglinide was provided as 0.5-mg tablets, olbutamide was provided as 500-mg tablets, and midazolam was provided as a syrup (2 mg/mL; 1 mL syrup for the 2-mg dose). Tucatinib, repaglinide, olbutamide and midazolam were administered before meals preceded by an at least 8-hour overnight fast.
Other noncompartmental PK parameters may be reported. Additionally, blood samples for determination of plasma concentrations of tucatinib and ONT-993 were collected at the time points indicated in FIG. 8. […] A single genotyping blood sample was collected to assess possible effect of CYP polymorphisms or other genetic polymorphisms on the magnitude of drug interactions of tucatinib with probe drugs and substrates.

[5] = Predicted hepatic metabolic stability across species; type: in vitro ADME

SMILES: Cc1cc(Nc2ncnc3ccc(NC4=NC(C)(C)CO4)cc23)ccc1Oc1ccn2ncnc2c1 [tucatinib]
- IC50 [1]: 85.5 ± 17.5 nM
- IC50 [2]: 8480 nM
- IC50 [3]: 340 nM
- Inhibition of CYP2C8 in vivo [4]: weak inhibitor
- Stability with respect to hepatic metabolism [5]: good-to-moderate stability
